As a reminder, the IC50 is the concentration at which inhibition is half-maximal. Read a low IC50 as inhibition by little substance.

The subject of test [1] is NF-κB pathway. Description: TNF-α assay (THP-1 cells differentiated to macrophages with IFN-γ, NF-κB pathway activated with LPS; ELISA). The note with it: compound 30 min, 50 ng/mL LPS 3 hours. The test is classed as cell-based, Human. In short, it runs like this: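 THP-1 cells differentiated with 25 ng/mL IFN-γ for 24 h, then 30 min with compounds in serum-free medium. NF-κB activated with 50 ng/mL LPS, 3 h at 37 °C. Supernatant TNF-α by ELISA; IC50 from four-parameter logistic fit of % inhibition.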
In general terms: An ELISA detects its analyte on a solid surface through an enzyme-linked reagent.

The target in test [2] is T1, NLRP3 inflammasome (Homo sapiens, UniProt Q96P20).
T1 construct: IL-1beta HTRF
The test is described as follows: IL-1β TR-FRET assay (THP-1 cells differentiated to macrophages with IFN-γ, LPS primed, ATP activated; HTRF). The test is classed as cell-based. As to conditions: THP-1 macrophages, 50 ng/mL LPS priming, compound 30 min, 20 mM ATP 2 hours. In short, it runs like this: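 THP-1 cells differentiated with 25 ng/mL IFN-γ for 24 h, primed with 50 ng/mL LPS in serum-free medium for 24 h, then treated with compounds for 30 min before 20 mM ATP activation for 2 h at 37 °C. Secreted IL-1β quantified by HTRF; IC50 from logistic fit of % inhibition.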
A general note: Time-resolved FRET reads energy transfer from a long-lived donor to a nearby acceptor.

Setting [3] is: Homo sapiens, THP-1, THP-1 macrophages.

T1 sequence (Q96P20 whole entry): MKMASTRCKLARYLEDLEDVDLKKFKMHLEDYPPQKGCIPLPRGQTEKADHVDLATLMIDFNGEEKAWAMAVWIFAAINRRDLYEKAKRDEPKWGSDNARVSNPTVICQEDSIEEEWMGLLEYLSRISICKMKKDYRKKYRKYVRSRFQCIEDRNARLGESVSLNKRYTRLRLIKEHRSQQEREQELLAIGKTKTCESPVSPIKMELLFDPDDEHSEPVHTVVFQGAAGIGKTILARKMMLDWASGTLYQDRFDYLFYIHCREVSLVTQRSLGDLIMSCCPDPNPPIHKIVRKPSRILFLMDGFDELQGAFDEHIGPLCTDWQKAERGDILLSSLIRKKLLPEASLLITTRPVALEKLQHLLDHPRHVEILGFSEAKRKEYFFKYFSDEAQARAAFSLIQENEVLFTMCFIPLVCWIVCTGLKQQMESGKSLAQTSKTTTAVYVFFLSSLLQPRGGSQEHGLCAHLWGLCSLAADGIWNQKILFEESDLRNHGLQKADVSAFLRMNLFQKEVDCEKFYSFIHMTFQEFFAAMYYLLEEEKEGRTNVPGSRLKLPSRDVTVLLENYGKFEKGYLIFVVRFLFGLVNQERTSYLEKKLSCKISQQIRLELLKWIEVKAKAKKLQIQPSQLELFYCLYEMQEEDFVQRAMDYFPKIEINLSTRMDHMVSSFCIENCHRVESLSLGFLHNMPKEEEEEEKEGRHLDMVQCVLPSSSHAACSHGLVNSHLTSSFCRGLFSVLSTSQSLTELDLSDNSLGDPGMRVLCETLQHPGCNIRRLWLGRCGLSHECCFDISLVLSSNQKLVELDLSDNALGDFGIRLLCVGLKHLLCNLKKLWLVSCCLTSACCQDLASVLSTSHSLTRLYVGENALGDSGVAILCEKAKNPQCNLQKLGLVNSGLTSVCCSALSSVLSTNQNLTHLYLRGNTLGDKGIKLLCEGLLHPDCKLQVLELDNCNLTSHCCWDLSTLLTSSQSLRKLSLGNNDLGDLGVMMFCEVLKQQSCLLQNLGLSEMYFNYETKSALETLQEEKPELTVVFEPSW

As to `Cc1cc(C)c(-n2cc3sc(N[C@@H]4C[C@H](C(F)F)CN(C)C4)nc3n2)c(O)c1` [Example 33, 2-(5-{[(3R,5S)-5-(difluoromethyl)-1-methylpiperidin-3-yl]amino}-2H-pyrazolo[3,4-d][1,3]thiazol-2-yl)-3,5-dimethylphenol], the half-maximal inhibitory concentration (IC50) in test [1] (setting [3]) is over 10000 nM; in test [2], 1500 nM.
With `Cc1cc(C)c(-n2cc3sc(NC[C@@H](C)O)nc3n2)c(O)c1` [Example 34, 2-(5-{[(2R)-2-hydroxypropyl]amino}-2H-pyrazolo [3,4-d][1,3]thiazol-2-yl)-3,5-dimethylphenol], the results for the IC50 in test [1] (setting [3]) and in test [2] were over 10000 nM and 150 nM, respectively.
In the case of `Cc1cc(C)c(-n2cc3sc(N[C@@H]4CCCN(CC(F)F)C4)nc3n2)c(O)c1` [Example 35, 2-(5-{[(3R)-1-(2,2-difluoroethyl)piperidin-3-yl]amino}-2H-pyrazolo[3,4-d][1,3]thiazol-2-yl)-3,5-dimethylphenol], the figures for the IC50 in test [1] (setting [3]) and in test [2] were over 10000 nM and 68 nM, respectively.
For `COCCN1CCC[C@@H](Nc2nc3nn(-c4c(C)cc(C)cc4O)cc3s2)C1` [Example 36, 2-(5-{[(3R)-1-(2-methoxyethyl)piperidin-3-yl]amino}-2H-pyrazolo[3,4-d][1,3]thiazol-2-yl)-3,5-dimethylphenol], in that order: over 30000 nM and 34 nM.
For `COCCN(c1nc2nn(-c3c(C)cc(C)cc3O)cc2s1)[C@@H]1CCCNC1` [Example 37, 2-(5-{(2-methoxyethyl)[(3R)-piperidin-3-yl]amino}-2H-pyrazolo[3,4-d][1,3]thiazol-2-yl)-3,5-dimethylphenol], in that order: over 30000 nM and 120 nM.
The like results for `CC(=O)NCCNc1nc2nn(-c3c(C)cc(C)cc3O)cc2s1` [Example 38, N-(2-{[2-(2-hydroxy-4,6-dimethylphenyl)-2H-pyrazolo[3,4-d][1,3]thiazol-5-yl]amino}ethyl)acetamide] were, in that order, over 30000 nM and 440 nM.
For the compound `CC(=O)NCCCCNc1nc2nn(-c3c(C)cc(C)cc3O)cc2s1` [Example 39], the IC50 in test [1] (setting [3]) was over 30000 nM; in test [2], 390 nM.
With `CO[C@H]1CN(C)C[C@@H]1Nc1nc2nn(-c3c(C)cc(C)cc3O)cc2s1` [Example 40, 2-(5-{[(3S,4S)-4-methoxy-1-methylpyrrolidin-3-yl]amino}-2H-pyrazolo[3,4-d][1,3]thiazol-2-yl)-3,5-dimethylphenol], the IC50 in test [1] (setting [3]) was over 30000 nM; in test [2], 1800 nM.
For `Cc1cc(C)c(-n2cc3sc(N[C@@H]4C[C@@H](C(F)F)CN(C)C4)nc3n2)c(O)c1` [Example 41, 2-(5-{[(3R,5R)-5-(difluoromethyl)-1-methylpiperidin-3-yl]amino}-2H-pyrazolo[3,4-d][1,3]thiazol-2-yl)-3,5-dimethylphenol], in that order: over 10000 nM and 1500 nM.
For `Cc1cc(C)c(-n2cc3sc(N[C@@H]4CCCN(CCF)C4)nc3n2)c(O)c1` [Example 42, 2-(5-{[(3R)-1-(2-fluoroethyl)piperidin-3-yl]amino}-2H-pyrazolo[3,4-d][1,3]thiazol-2-yl)-3,5-dimethylphenol], in that order: over 30000 nM and 14 nM.
The like results for `COc1cc(C)c(-n2cc3sc(N[C@@H]4C[C@@H](F)CN(C)C4)nc3n2)c(O)c1` [Example 43, 2-(5-{[(3R,5R)-5-fluoro-1-methylpiperidin-3-yl]amino}-2H-pyrazolo[3,4-d][1,3]thiazol-2-yl)-5-methoxy-3-methylphenol] were, in that order, over 30000 nM and 28 nM.
With `Cc1cc(C)c(-n2cc3sc(N[C@@H]4CC[C@@H](O)C4)nc3n2)c(O)c1` [Example 44, 2-(5-{[(1R,3R)-3-hydroxycyclopentyl]amino}-2H-pyrazolo[3,4-d][1,3]thiazol-2-yl)-3,5-dimethyphenol or 2-(5-{[(1S,3S)-3-hydroxycyclopentyl]amino}-2H-pyrazolo[3,4-d][1,3]thiazol-2-yl)-3,5-dimethylphenol (tR1)], the IC50 in test [1] (setting [3]) was over 10000 nM; in test [2] it was 240 nM.
As to `Cc1cc(C)c(-n2cc3sc(N[C@@H]4CC[C@@H](O)C4)nc3n2)c(O)c1` [Example 45, 2-(5-{[(1R,3R)-3-hydroxycyclopentyl]amino}-2H-pyrazolo[3,4-d][1,3]thiazol-2-yl)-3,5-dimethylphenol or 2-(5-{[(1S,3S)-3-hydroxycyclopentyl]amino}-2H-pyrazolo[3,4-d][1,3]thiazol-2-yl)-3,5-dimethylphenol (tR2)], the IC50 was over 10000 nM in test [1] (THP-1 macrophages) and 330 nM in test [2].
For the compound `Cc1cc(C)c(-n2cc3sc(N[C@@H]4CC[C@H](O)C4)nc3n2)c(O)c1` [Example 46, 2-(5-{[(1R,3S)-3-hydroxycyclopentyl]amino}-2H-pyrazolo[3,4-d][1,3]thiazol-2-yl)-3,5-dimethylphenol or 2-(5-{[(1S,3R)-3-hydroxycyclopentyl]amino}-2H-pyrazolo[3,4-d][1,3]thiazol-2-yl)-3,5-dimethylphenyl (tR1)], the IC50 was over 10000 nM in test [1] (setting [3]) and 330 nM in test [2].
On to `Cc1cc(C)c(-n2cc3sc(N[C@@H]4CC[C@H](O)C4)nc3n2)c(O)c1` [Example 47, 2-(5-{[(1R,3S)-3-hydroxycyclopentyl]amino}-2H-pyrazolo[3,4-d][1,3]thiazol-2-yl)-3,5-dimethylphenol or 2-(5-{[(1S,3R)-3-hydroxycyclopentyl]amino}-2H-pyrazolo[3,4-d][1,3]thiazol-2-yl)-3,5-dimethylphenol (tR2)], for which the 50% inhibitory concentration (IC50) was over 10000 nM in test [1] (THP-1 macrophages) and 1200 nM in test [2].
On to `COc1cc(C)cc(O)c1-n1cc2sc(N[C@@H]3C[C@@H](F)CN(C)C3)nc2n1` [Example 48, 2-(5-{[(3R,5R)-5-fluoro-1-methylpiperidin-3-yl]amino}-2H-pyrazolo[3,4-d][1,3]thiazol-2-yl)-3-methoxy-5-methylphenol], for which the 50% inhibitory concentration (IC50) in test [1] (setting [3]) is over 10000 nM; in test [2] it was 130 nM.
The like results for `Cc1cc(C)c(-n2cc3sc(N(C)C)nc3n2)c(O)c1` [Example 49, 2-[5-(dimethylamino)-2H-pyrazolo[3,4-d][1,3]thiazol-2-yl]-3,5-dimethylphenol] were, in that order, over 30000 nM and 1300 nM.
The like results for `Cc1cc(O)c(-n2cc3sc(N[C@@H]4C[C@@H](F)CN(C)C4)nc3n2)c(OC(F)F)c1` [Example 50, 3-(difluoromethoxy)-2-(5-{[(3R,5R)-5-fluoro-1-methylpiperidin-3-yl]amino}-2H-pyrazolo[3,4-d][1,3]thiazol-2-yl)-5-methylphenol] were, in that order, over 30000 nM and 12 nM.
For `CCN1C[C@H](F)C[C@@H](Nc2nc3nn(-c4c(O)cc(C)cc4OC(F)F)cc3s2)C1` [Example 51, 3-(difluoromethoxy)-2-(5-{[(3R,5R)-1-ethyl-5-fluoropiperidin-3-yl]amino}-2H-pyrazolo[3,4-d][1,3]thiazol-2-yl)-5-methylphenol], in that order: over 30000 nM and 2.8 nM.
`COCCN(c1nc2nn(-c3c(C)cc(C)cc3O)cc2s1)[C@@H]1CCCN(C)C1` [Example 52, 2-(5-{(2-methoxyethyl)[(3R)-1-methylpiperidin-3-yl]amino}-2H-pyrazolo[3,4-d][1,3]thiazol-2-yl)-3,5-dimethylphenol]: the IC50 in test [1] (setting [3]) is over 10000 nM; in test [2], 200 nM.
For `Cc1cc(C)c(-n2cc3sc(NCCN(C)C)nc3n2)c(O)c1` [Example 53, 2-(5-{[2-(dimethylamino)ethyl]amino}-2H-pyrazolo[3,4-d][1,3]thiazol-2-yl)-3,5-dimethylphenol], in that order: over 30000 nM and 680 nM.
For `Cc1cc(C)c(-n2cc3sc(NCCN4CCOCC4)nc3n2)c(O)c1` [Example 54, 3,5-dimethyl-2-(5-{[2-(morpholin-4-yl)ethyl]amino}-2H-pyrazolo[3,4-d][1,3]thiazol-2-yl)phenol], in that order: over 30000 nM and 1100 nM.
The like results for `Cc1cc(C)c(-n2cc3sc(NCCC(C)(C)O)nc3n2)c(O)c1` [Example 55, 2-{5-[(3-hydroxy-3-methylbutyl)amino]-2H-pyrazolo[3,4-d][1,3]thiazol-2-yl}-3,5-dimethylphenol] were, in that order, over 10000 nM and 1400 nM.
Consider `CC(=O)NCCCNc1nc2nn(-c3c(C)cc(C)cc3O)cc2s1` [Example 56, N-(3-{[2-(2-hydroxy-4,6-dimethylphenyl)-2H-pyrazolo[3,4-d][1,3]thiazol-5-yl]amino}propyl) acetamide], for which the results for the IC50 in test [1] (setting [3]) and in test [2] were over 30000 nM and 230 nM, respectively.
For the compound `Cc1cc(C)c(-n2cc3sc(NC45CCC(O)(CC4)C5)nc3n2)c(O)c1` [Example 57, 4-{[2-(2-hydroxy-4,6-dimethylphenyl)-2H-pyrazolo[3,4-d][1,3]thiazol-5-yl]amino}bicyclo[2.2.1]heptan-1-ol], the IC50 is over 10000 nM in test [1] (setting [3]) and 130 nM in test [2].
The like results for `Cc1cnc(-n2nc3nc(N[C@@H]4CCCN(C)C4)sc3c2C)c(O)c1` [Example 58, 5-methyl-2-(3-methyl-5-{[(3R)-1-methylpiperidin-3-yl]amino}-2H-pyrazolo[3,4-d][1,3]thiazol-2-yl)pyridin-3-ol] were, in that order, over 30000 nM and 2600 nM.
The like results for `CCc1cc(O)c(-n2cc3sc(N[C@@H]4C[C@@H](F)CN(C)C4)nc3n2)c(CC)c1` [Example 59, 3,5-diethyl-2-(5-{[(3R,5R)-5-fluoro-1-methylpiperidin-3-yl]amino}-2H-pyrazolo[3,4-d][1,3]thiazol-2-yl)phenol] were, in that order, over 30000 nM and 23 nM.

The record behind these values is patent US20260365671A1, “HETEROCYCLIC COMPOUND” (Takeda Pharmaceutical Company Limited, priority 2022, published 2026).
